We go through 1 compound from PMC7176092, “Development of the first in vivo GPR17 ligand through an iterative drug discovery pipeline: A novel disease-modifying strategy for multiple sclerosis” (PLoS ONE, 2020).

In assay [1] the target is T1, ADR1B (Homo sapiens, UniProt P35368).
T1 construct: Eurofins Cerep (external service)
T1 sequence (P35368 1-520): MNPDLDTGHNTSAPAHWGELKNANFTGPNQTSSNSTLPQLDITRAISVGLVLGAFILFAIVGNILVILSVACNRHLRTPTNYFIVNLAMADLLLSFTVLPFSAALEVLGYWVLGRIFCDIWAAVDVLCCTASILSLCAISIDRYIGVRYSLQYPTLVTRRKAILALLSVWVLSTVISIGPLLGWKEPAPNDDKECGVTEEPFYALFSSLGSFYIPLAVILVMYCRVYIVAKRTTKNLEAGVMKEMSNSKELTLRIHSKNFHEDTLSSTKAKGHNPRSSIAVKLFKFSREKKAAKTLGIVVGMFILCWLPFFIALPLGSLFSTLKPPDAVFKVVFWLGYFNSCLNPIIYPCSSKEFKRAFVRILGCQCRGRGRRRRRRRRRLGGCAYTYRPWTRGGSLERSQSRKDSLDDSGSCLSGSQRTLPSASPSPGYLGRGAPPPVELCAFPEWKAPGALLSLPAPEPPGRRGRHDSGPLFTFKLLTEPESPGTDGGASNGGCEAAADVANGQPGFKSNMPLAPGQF
Kind of assay: Binding assay ADR1B. To be noted: 100 nM.

For assay [2], the target named is CXCR6 (Homo sapiens, UniProt O00574). In words: Cellular functional assay CXCR6.
For assay [3], the target named is T2, CXCR1 (Homo sapiens, UniProt P25024).
T2 sequence (P25024 1-350): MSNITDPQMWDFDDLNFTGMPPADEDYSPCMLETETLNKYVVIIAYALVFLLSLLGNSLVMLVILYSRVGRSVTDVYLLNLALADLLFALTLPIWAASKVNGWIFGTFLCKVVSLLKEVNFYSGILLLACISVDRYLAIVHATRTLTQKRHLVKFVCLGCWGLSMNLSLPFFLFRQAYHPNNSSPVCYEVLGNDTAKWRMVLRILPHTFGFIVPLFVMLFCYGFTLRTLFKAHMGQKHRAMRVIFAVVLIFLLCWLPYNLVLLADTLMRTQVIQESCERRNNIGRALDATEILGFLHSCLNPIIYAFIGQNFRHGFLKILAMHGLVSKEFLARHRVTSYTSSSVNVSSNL
In words: Cellular functional assay CXCR1.

The target of assay [4] is T3, human GPR17 (Homo sapiens, UniProt Q13304).
T3 construct: HA; expressed in transfected cells
In words: [35S]GTPγS binding assay. Type of assay: biochemical. The method, then:
[^35S]GTPγS binding assays were carried out as previously described. Briefly, control and astrocytoma 1321N1 cells stably transfected with human pcDNA3.1 (control cells) and human HA-tag GPR17 were homogenized in 5 mM Tris/HCl and 2 mM EDTA (pH 7.4) and centrifuged at 48,000g for 15 min at 4°C. The resulting pellets were washed in 50 mM Tris/HCl and 10 mM MgCl2 (pH 7.4). After protein dosage, aliquots of cell membranes were incubated with increasing concentrations of each investigated ligand (1 pM–10 μM) and GTPγS binding to activated G-proteins was quantified as previously described. Compounds were purchased from two external providers, i.e., Ambinter (Ambinter c/o Greenpharma, Orléans, France http://www.ambinter.com/) and Asinex (http://www.asinex.com/).
For analysis and graphic presentation of [^35S]GTPγS binding data, a nonlinear multipurpose curve fitting computer program (Graph-Pad Prism) was used. All data are presented as the mean ± SEM of three different experiments.
The selected 15 molecules were evaluated in our in-house [^35S]GTPγS functional assay in membranes from cells transfected with human GPR17. […] Moreover, this assay has been already successfully used in the past to measure the ability of both endogenous and novel synthetic compounds to activate GPR17 [25, 31]. All tested molecules were able to potently activate GPR17 with nanomolar/sub-nanomolar affinities. Concentration-response curves obtained for each selected compound are reported in S4 Fig.
(In general: GTPγS resists hydrolysis and so accumulates on activated G proteins.)

The target in assay [5] is T4, CCR7 (Homo sapiens, UniProt P32248).
T4 sequence (P32248 25-378): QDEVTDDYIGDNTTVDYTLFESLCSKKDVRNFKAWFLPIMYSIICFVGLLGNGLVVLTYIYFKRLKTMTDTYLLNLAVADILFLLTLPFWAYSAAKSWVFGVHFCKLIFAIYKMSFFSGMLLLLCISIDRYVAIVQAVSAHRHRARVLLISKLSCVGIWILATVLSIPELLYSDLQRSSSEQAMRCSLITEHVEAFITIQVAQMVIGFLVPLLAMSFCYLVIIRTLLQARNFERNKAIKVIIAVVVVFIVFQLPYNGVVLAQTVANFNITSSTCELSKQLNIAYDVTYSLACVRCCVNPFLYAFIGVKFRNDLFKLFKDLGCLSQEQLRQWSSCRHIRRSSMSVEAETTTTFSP
Kind of assay: Cellular functional assay CCR7.

In assay [6] the target is T5, CXCR5 (Homo sapiens, UniProt P32302).
T5 sequence (P32302 1-372): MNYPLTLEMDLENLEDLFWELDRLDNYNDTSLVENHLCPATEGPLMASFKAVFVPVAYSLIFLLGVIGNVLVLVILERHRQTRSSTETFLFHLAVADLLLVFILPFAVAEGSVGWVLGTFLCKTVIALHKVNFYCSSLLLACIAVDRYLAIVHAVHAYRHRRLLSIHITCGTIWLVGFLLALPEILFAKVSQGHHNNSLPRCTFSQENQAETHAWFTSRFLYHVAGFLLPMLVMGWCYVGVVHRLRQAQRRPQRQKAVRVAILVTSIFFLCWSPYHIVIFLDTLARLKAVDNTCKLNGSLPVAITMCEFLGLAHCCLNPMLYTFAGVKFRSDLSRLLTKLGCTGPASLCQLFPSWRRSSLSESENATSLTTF
Kind of assay: Cellular functional assay CXCR5.

Setting [7] is: antagonist effect, 100 nM, single replicates 1st and 2nd, 0.1 µM.
The mark [8] stands for this setting: read-out: % Inhibition of control agonist response.
Setting [9] is: read-out: Agonist Response (% of Control), Mean, antagonist effect, 100 nM, mean of 2.
[10] abbreviates: read-out: Agonist Response (% of Control), antagonist effect, 100 nM, single replicates 1st and 2nd.

Values joined by “and” are separate entries in the source; they are usually repeats but may differ in a detail not shown here. Identical values can stand only once. Like-named read-outs stand apart in the source and are kept apart here. Marks after values point to notes of the source that are not given here.

T3 sequence (Q13304 29-367): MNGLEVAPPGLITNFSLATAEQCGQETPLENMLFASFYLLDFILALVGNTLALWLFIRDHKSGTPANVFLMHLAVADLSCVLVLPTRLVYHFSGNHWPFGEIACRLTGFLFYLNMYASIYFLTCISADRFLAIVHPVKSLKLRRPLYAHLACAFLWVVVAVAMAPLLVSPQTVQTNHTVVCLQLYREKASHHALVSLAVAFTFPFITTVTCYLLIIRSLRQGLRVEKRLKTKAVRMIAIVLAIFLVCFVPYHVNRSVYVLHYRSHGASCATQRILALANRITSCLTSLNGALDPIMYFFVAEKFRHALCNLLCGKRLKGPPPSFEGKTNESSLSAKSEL
Sequence of CXCR6 (O00574 whole entry): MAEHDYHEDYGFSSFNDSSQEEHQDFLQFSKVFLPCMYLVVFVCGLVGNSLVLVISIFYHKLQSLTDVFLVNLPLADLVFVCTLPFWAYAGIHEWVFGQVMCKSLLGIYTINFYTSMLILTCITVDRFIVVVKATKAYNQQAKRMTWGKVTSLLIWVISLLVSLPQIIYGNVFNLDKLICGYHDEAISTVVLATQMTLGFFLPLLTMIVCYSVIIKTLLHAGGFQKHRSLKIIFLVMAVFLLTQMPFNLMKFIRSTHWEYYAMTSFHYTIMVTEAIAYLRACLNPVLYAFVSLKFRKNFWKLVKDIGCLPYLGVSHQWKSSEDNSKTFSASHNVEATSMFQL

What is called inhibition is the change of the read-out against control, counted positive when it falls. The term EC50 denotes the concentration at which the effect is half-maximal. A high value points to weaker potency. For `Cc1ccc(-c2nnc(SCC(=O)Nc3nccs3)[nH]2)cc1` [Compound 9], the remaining activity at 0.1 µM in assay [1] (mean of 2, read-out: % Of control specific binding, Mean) was found to be 89.8%. Also, the inhibition at 0.1 µM was 10% in assay [1] (read-out: % Inhibition of control specific binding); -0.7% in assay [2] (setting [8]); -0.8% in assay [3] (setting [8]); -1.8% in assay [5] (setting [8]); 1.2% in assay [6] (setting [8]). Also, the “% Of control specific binding” value in assay [1] (single replicates 1 and 2, 0.1 µM) was 100.1% and 79.4%. The “Agonist Response (% of Control)” value in assay [2] (setting [7]) stood at 103.1%; in assay [3] (setting [7]), 105.5%; in assay [5] (setting [7]) it was 122.8%; in assay [6] (setting [7]) it was 99.7%. The activity at 0.1 µM was 104% in assay [2] (setting [9]); 105% in assay [2] (setting [10]); 96.3% in assay [3] (setting [9]); 87.1% in assay [3] (setting [10]); 127% in assay [5] (setting [9]); 131% in assay [5] (setting [10]). The activity at 0.1 µM in assay [6] (setting [9]) was determined as 102%; in assay [6] (setting [10]) it was 103%. In assay [4] (membranes of 1321N1 cells transfected with human GPR17, mean ± SEM of 3 experiments), this compound gave an EC50 of 0.64 ± 0.12 nM. Moreover, the “% Emax (ratio vs Emax of the standard)” value in assay [4] (standard LTD4 50 nM set to 100% († compounds)) was 88.5 ^** %. Further, the “Emax (% vs basal)” value in assay [4] (vs basal, mean ± SEM) is listed as 127.8 ± 3.0%.
